Assay results published in paper PMC6164231, “Evaluation of Chemical Strategies for Improving the Stability and Oral Toxicity of Insecticidal Peptides” (Biomedicines, 2018).

B1: AaIT: scorpion toxin AaIT (peptide, UniProt P01497 19-88, looked up)
Beta-insect excitatory toxin 1: KKNGYAVDSSGKAPECLLSNYCNNECTKVHYADKGYCCLLSCYCFGLNDDKKVLEISDTRKSYCDTTIIN

Legend:
[1] = test system: sheep blowflies (Lucilia cuprina); test: Blowfly toxicity assay, injection; type: in vivo; details: injected into ventro-lateral thoracic region, lethality after 24 h; three tests, n = 10 flies per dose
Protocol: Injection assays using sheep blowflies (Lucilia cuprina) were performed as described. Briefly, peptides were dissolved in insect-saline and injected into the ventro-lateral thoracic region of blowflies (mass 16.5–27.0 mg). Thereafter, flies were individually housed in 2 mL tubes and lethality determined after 24 h.
(§1) Tests for oral toxicity in blowflies were performed as described. In short, peptides were dissolved in 5% sucrose and 3 μL of this solution was applied to the inside of a 2 mL tube containing a single fly (mass 16.8–25.3 mg). Flies were kept in the tube overnight without additional food or water until the sucrose solution was consumed. Thereafter, flies were transferred into 250 mL plastic containers and provided with a sugar cube and wet cotton wool. Each box housed 10 flies that received the same treatment. Oral toxicity was determined three days after the oral application. For both injection and oral toxicity assays, three tests were carried for each peptide, and for each test several doses of peptide (n = 10 flies per dose) were used along with appropriate controls (i.e., insect saline or 5% sucrose solution; n = 20–40). LD50 values were calculated as described previously.

[2] = Susceptibility to scrambling of Hv1a and diselenide analogs (buffer with or without GSH); type: physicochemical; details: for susceptibility to scrambling in the presence of GSH: 1 equivalent GSH; for Correctly Folded Toxin, In Buffer, pH 7.2: 45 μL of 250 μM peptide + 45 μL 0.1 M phosphate buffer pH 7.2, 24 h; for Correctly Folded Toxin, In Buffer, pH 7.2 / Correctly Folded Toxin, With 1 Equivalent GSH, pH 7.2: quenched with 1% TFA, analytical RP-HPLC; for Correctly Folded Toxin, With 1 Equivalent GSH, pH 7.2: 45 μL of 250 μM peptide + 45 μL 0.1 M phosphate buffer pH 7.2 containing 250 μM GSH, 24 h
Protocol: Peptide (45 μL of a 250 μM solution) was combined with either 45 μL of buffer (0.1 M phosphate buffer, pH 7.2) or 45 μL of buffer containing 250 μM GSH. After 24 h, the reaction was quenched with 1% TFA and the solution analysed using analytical RP-HPLC.

[3] = Midgut permeation assay (Ussing chamber); type: in vitro ADME, Manduca sexta; details: 10 µM in luminal fluid, separate occasion / different batch of M. sexta, comparison with 1,4-SeSe-Hv1a, 1 h at 30 °C, HPLC/ELISA/MALDI-TOF MS, mean ± S.E.M, n = 11–12 tissues
Protocol: Flat-sheet preparations of the anterior midgut of Manduca sexta were mounted in Ussing-type chambers as previously described [39]. The lumen to hemolymph flux was determined by applying various concentrations of peptide (0.1, 1, and 10 μM) to the luminal side of the tissue and taking aliquots of saline from the hemolymph side after 1 h incubation at 30 °C (n = 9–19 tissues per peptide and dose). […] To check for damage to gut tissues that would allow leakage of peptides through the tissues, 1% amaranth, which is not absorbed across gut epithelia, was added to the luminal side of the tissue. Samples were analysed using a combination of liquid chromatography, enzyme-linked immunosorbent assay (ELISA), and matrix-assisted laser desorption/ionisation time-of-flight mass spectrometry (MALDI-TOF MS) to quantify the amount of intact peptide present on the hemolymph side of the tissue [39].
Chromatography was performed using a Beckman System Gold chromatographic system (Beckman Coulter Ltd., High Wycombe, UK) consisting of a dual pump programmable solvent module 126 and System Gold UV detector module 166. […] Samples were eluted using a linear gradient of 10–60% ACN/0.1% TFA over 50 min at a flow rate of 0.2 mL/min, and elution monitored at 214 nm. […] Absorbance was converted to peptide concentration using standard curves. […]

[4] = test system: sheep blowflies (Lucilia cuprina); test: Blowfly toxicity assay, oral; type: in vivo; details: feeding to sheep blowflies; full dose-response curves not determined (Figure 4)
Protocol: as §1

Sarcophaga flesh flies = details: cited from earlier work
[5] = 0.1 M phosphate buffer pH 7.2, 24 h, RP-HPLC

| Molecule | LD50, injection into sheep blowflies [1] [pmol/g] | susceptibility to scrambling in the presence of GSH [2, 5] | Correctly Folded Toxin, In Buffer, pH 7.2 [2] [%] | Correctly Folded Toxin, With 1 Equivalent GSH, pH 7.2 [2] [%] | Lumen to Hemolymph Flux [3] [pmol/cm^2/h] | stability in neutral media [2, 5] | oral activity compared with native Hv1a [4] | ratio oral vs. injection LD50 (Sarcophaga flesh flies) |
| --- | --- | --- | --- | --- | --- | --- | --- | --- |
| [C4U,C18U]-Hv1a [1,4-SeSe-Hv1a] | 407 ± 22 | only weakly prone to scrambling | 100 | 85 | 227 ± 14 | – | – | – |
| [C11U,C22U]-Hv1a [2,5-SeSe-Hv1a] | 455 ± 35 | only weakly prone to scrambling | 100 | 82 | – | – | – | – |
| [C17U,C36U]-Hv1a [3,6-SeSe-Hv1a] | 446 ± 12 | more susceptible to scrambling | 95 | 60 | – | marginal instability | significantly lower than native Hv1a | – |
| B1 | – | – | – | – | – | – | – | 714 |
